From patent US7935685B2, “Process for preparation of inclusion compounds between a non-steroidal anti-inflammatory drug and betacyclodextrin by microwave treatment” (Chiesi Farmaceutici S.p.A., priority 2001, dated 2011)

Experiment: Dissolution rate of piroxicam from the solid phases, dispersed amount method (USP 25, NF 20)
Assay type: physicochemical
Conditions: 1 L distilled water, 37° C., paddle 50 rpm
Description: The dissolution rate of the samples under study was determined by the dispersed amount method according to the USP 25, NF 20, 2002. The test samples were introduced into vessels containing 1 L of distilled water each.
The test was conducted by maintaining the temperature of the dissolving bath at 37° C. and regulating the paddle rotation speed to 50 rpm.
The concentration of the drug in solution was determined at 2-minute intervals by spectrophotometry.
Each sample was analysed in triplicate.

Structure (SMILES): CN1C(C(=O)Nc2ccccn2)=C(O)c2ccccc2S1(=O)=O [PRX, piroxicam]
- % DISS (percentage compared with the initial dose of PRX in the sample) (T 0 min): 0%
- % DISS (percentage compared with the initial dose of PRX in the sample) (T 2 min): 0.052%
- % DISS (percentage compared with the initial dose of PRX in the sample) (T 4 min): 0.245%
- % DISS (percentage compared with the initial dose of PRX in the sample) (T 6 min): 0.451%
- % DISS (percentage compared with the initial dose of PRX in the sample) (T 8 min): 0.619%
- % DISS (percentage compared with the initial dose of PRX in the sample) (T 10 min): 0.851%
- % DISS (percentage compared with the initial dose of PRX in the sample) (T 20 min): 2.051%
- % DISS (percentage compared with the initial dose of PRX in the sample) (T 30 min): 3.340%
- % DISS (percentage compared with the initial dose of PRX in the sample) (T 40 min): 4.694%
- % DISS (percentage compared with the initial dose of PRX in the sample) (T 50 min): 6.087%
- % DISS (percentage compared with the initial dose of PRX in the sample) (T 60 min): 7.635%
